Patent US20230158015A1, “DRUG COMBINATIONS FOR INHIBITING INFLAMMATION AND SRC KINASE ACTIVATION FOLLOWING INVASIVE SURGICAL PROCEDURES” (SINTETICA S.A., priority 2020, published 2023)
Read-outs that look alike come from different tables or passages of the source.

Assays:
[1] = system: immune cells in lungs and spleen of LPS-challenged mice; assay: LPS-induced inflammation model, IHC staining of immune cells in lungs and spleen; assay type: in vivo, mouse; details: lungs and spleen sections
Description: C57BL/6J mice (6-8 weeks) were purchased from Charles River Laboratories (USA) and acclimatized for at least 1 week before use. All mice were housed in a pathogen-free facility. The mice received LPS for 24 hours. Following 24 hours, mice were treated either with lidocaine alone or methylnaltrexone alone or a combination of both, as shown in Table 1.
At the conclusion of the study, the blood and tissue samples were collected for further study. The serum was used to determine pro-inflammatory cytokines using the LEGENDplex™ mouse inflammation panel (BioLegend, USA) kit followed by flow cytometry. The lungs and spleen tissue samples were used for hematoxylin and eosin (H&E) staining and immunohistochemical analyses for immune cells, including macrophages and natural killer (NK) cells, B cells, T cells, and its subsets. For histopathology and immunohistochemistry (IHC), tissue samples were prepared by cutting 4-µm sections from the paraffin blocks. IHC staining was performed by methods described earlier. The images were captured using bright field microscopy (Nikon Microscope). Two independent investigators evaluated the H&E and all immunohistochemical staining. For slide scoring, each investigator assessed the tissues and gave a score of 0 (no expression) to 4+ (strong uniform expression) as described previously. […]

p-Src / total Src [2] = assay: Total Src and p-Src expression in AsPc 1 human pancreatic cancer cell line (Western blot); assay type: cell-based; details: 10 µM lidocaine, 100 nM methylnaltrexone or both, one hour
Description: Example 10 evaluated the effect of 10 µM lidocaine (L), 100 nM methylnaltrexone (M) and the combination of 10 µM lidocaine + 100 nM methylnaltrexone (L+M) for 1 hour on total Src and p-Src expression in a human pancreatic cancer cell line (AsPc 1).
(§1) • P-Src-Tyr416 (GeneTex # GTX81151) 1:2000 in 5% bovine serum albumin, at room temperature, 4 hours • Total Src (CST # 2108S) 1:3000 in 5% bovine serum albumin, at room temperature, 4 hours

p-Src / total Src [3] = assay type: cell-based, mouse
Description: On day 1, mouse KPC-105 cells were cultured until 300,000 cells per well in a 6 well plate were obtained. On day 2, the cells were treated with 0, 0.5, 1,5, 10, 15, 30, 50 and 100 µM lidocaine for 30 minutes. Plates were then collected and washed with phosphate buffered saline and stored at -80° C. Cells were subsequently lysed with 100 µl of radioimmunoprecipitation assay buffer with protease and phosphatase buffers.
Protein estimation was done using a Bradford assay under the following conditions: • A Western Blot was stripped with 6 M guanidine hydrochloride after p-Src protein blocking to probe with total Src protein. • 10% SDS-PAGE 10 well Blocking: 5% bovine serum albumin for p-Src blot. • P-Src-Tyr416 (GeneTex GTX81151) Rb: 1:1000 in 5% bovine serum albumin, Overnight. • Total Src (Cell Signaling Technology 2108S ) Rb mAb 1:1000 overnight in 5% milk. • GAPDH (Invitrogen# AM4300) : 1:5000 in 5% milk overnight. • Wash: 4x for 5 minutes each with 1x TBST. • Developed using 50% femto for the p-Src protein and homemade ECL substrate for total Src and GAPDH protein.
Example 4 evaluated endogenous Src and p-Src in 10 µM lidocaine treated mouse KPC-105 cells at different time points.
Example 5 evaluated endogenous Src and p-Src in mouse KPC-105 cells treated with 10 10 µM lidocaine for different time points, and increasing doses of methylnaltrexone after one hour of incubation. Western Blot banding patterns were generated using 15 µg /lane (NP40 lysates) 10% SDS PAGE over a 6-hour duration (lidocaine) and a 1-hour duration (methylnaltrexone).
• P-Src-Tyr416 (GeneTex # GTX81151) Rb: 1:1000 in 5% bovine serum albumin o/n at 4° C. • 10 µg /lane (NP40 lysates) 10% SDS PAGE • Total Src (CST # 2108S ) Rb mAb 1:1000 in 5% bovine serum albumin o/n at 4° C.
• P-Src-Tyr416 (GeneTex # GTX81151) Rb: 1:1000 in 5% bovine serum albumin 3 hours at room temperature • 10 µg /lane (NP40 lysates) 10% SDS PAGE • Total Src (CST # 2108S ) Rb mAb 1:1000 in 5% bovine serum albumin 3 hours at room temperature
• P-Src-Tyr416 (GeneTex # GTX81151) 1:2000 in 5% bovine serum albumin, o/n at 4° C. • Total Src (CST # 2108S ) 1:3000 in 5% bovine serum albumin, o/n at 4° C. • Vinculin (ProteinTech) 1:4000 in 5% milk o/n at 4° C.
• P-Src-Tyr416 (GeneTex # GTX81151) 1:2000 in 5% bovine serum albumin, o/n at 4C • Total Src (CST # 2108S ) 1:3000 in 5% bovine serum albumin, o/n at 4C

p-Src / total Src [4] = assay: Total Src and p-Src expression in Panc1 human pancreatic cancer cell line (Western blot); assay type: cell-based; details: 10 µM lidocaine, 100 nM methylnaltrexone or both, time points up to 6 hours, fresh media
Description: as §1
Example 12 evaluated the effect of 10 µM lidocaine (L), 100 nM methylnaltrexone (M) and the combination of 10 µM lidocaine + 100 nM methylnaltrexone (L+M) on total Src and p-Src expression in a human pancreatic cancer cell line (Panc1) at multiple time points up to 6 hours, in fresh media. Experimental conditions were identical to Example 10.

[5] = Example 4, 10 µM lidocaine, different time points
[6] = Example 8, 10 µM lidocaine, 100 nM methylnaltrexone or both, different time points

SMILES: CCN(CC)CC(=O)Nc1c(C)cccc1C [lidocaine, 2-diethylaminoaceto-2′,6′-xylidide]
- F4/80 positive area (macrophages) [1]: partially decreased
- p-Src activity (p-Src / total Src [2]): attenuated p-Src activity
- dose from which the level of p-Src protein is reduced (p-Src / total Src [3]; Example 3, 30 minutes of treatment, 0-100 µM tested): ≥ 10 µM
- Src phosphorylation (p-Src) (p-Src / total Src [3]; [5]): attenuated Src phosphorylation after 15 minutes and up to 6 hours
- total Src (p-Src / total Src [3]; [5]): not affected
- total Src (p-Src / total Src [3]; Example 5, 10 µM lidocaine over 6 hours, increasing doses of methylnaltrexone, 1 hour): not affected
- Src phosphorylation (p-Src) (p-Src / total Src [3]; Example 5, 10 µM lidocaine, different time points, inconsistent banding pattern): attenuated Src phosphorylation at 30 minutes, 1 hour, 2 hours, and 6 hours
- phosphorylation of Src (p-Src / total Src [3]; [6]): attenuated phosphorylation of Src after 1 hour of exposure
- total Src (p-Src / total Src [3]; [6]): decreased total Src after 1 hours of exposure
- p-Src (p-Src / total Src [4]): inconsistent effects on decreases in p-Src
